Results as given in PubChem BioAssay (NCI).
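96-well plates; 48 h exposure; 5 concentrations. Endpoints by linear interpolation between flanking doses. Not reached: highest tested concentration assigned. Here, GI50 denotes the concentration required for 50% inhibition of growth. TGI: total growth inhibition.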

Tests used:
Experiment in all cases: DTP human tumour cell line panel, 48 h
[1] = system: SK-MEL-5 melanoma
[2] = system: A549 NSCLC
[3] = system: NCI-H226 lung
[4] = system: M14 melanoma
[5] = system: SW-620 colon
[6] = system: T-47D breast
[7] = system: SNB-75 CNS
[8] = system: RXF 393 renal
[9] = system: U251 CNS
[10] = system: DU-145 prostate
[11] = system: OVCAR-4 ovarian
[12] = system: HCC-2998 colon
[13] = system: MDA-MB-435
[14] = system: MALME-3M melanoma
[15] = system: UACC-257 melanoma
[16] = system: NCI-H522 lung
[17] = system: SK-MEL-28 melanoma
[18] = system: HCT-15 colon
[19] = system: RPMI-8226 leukemia
[20] = system: TK-10 renal
[21] = system: SR leukemia
[22] = system: SF-539 CNS
[23] = system: OVCAR-8 ovarian
[24] = system: NCI-H23 lung
[25] = system: BT-549 breast
[26] = system: SK-OV-3 ovarian
[27] = system: NCI/ADR-RES ovarian
[28] = system: OVCAR-5 ovarian
[29] = system: HOP-92 NSCLC
[30] = system: MDA-MB-231 breast
[31] = system: LOX IMVI melanoma
[32] = system: OVCAR-3 ovarian
[33] = system: CCRF-CEM leukemia
[34] = system: HS 578T breast
[35] = system: EKVX NSCLC
[36] = system: HCT-116 colon
[37] = system: K-562 leukemia
[38] = system: 786-0 renal
[39] = system: SK-MEL-2 melanoma
[40] = system: UACC-62 melanoma
[41] = system: NCI-H460 lung
[42] = system: PC-3 prostate
[43] = system: SN12C renal
[44] = system: KM12 colon
[45] = system: ACHN renal
[46] = system: COLO 205 colon
[47] = system: HOP-62 NSCLC
[48] = system: SF-268 CNS
[49] = system: UO-31 renal
[50] = system: MCF7 breast
[51] = system: MOLT-4 leukemia
[52] = system: CAKI-1 renal
[53] = system: A498 renal
[54] = system: HT29 colon
[55] = system: SNB-19 CNS
[56] = system: IGROV1 ovarian
[57] = system: HL-60(TB) leukemia
[58] = system: SF-295 CNS

## O=C(NCc1cccnc1)/C(=C\c1ccc(Br)cc1)S(=O)(=O)c1ccccc1
[1]
  GI50: 1.38 µM
  TGI: 2.69 µM
[2]
  GI50: 1.48 µM
  TGI: 3.31 µM
[3]
  GI50: 1.29 µM
  TGI: 2.67 µM
[4]
  GI50: 1.04 µM
  TGI: 2.86 µM
[5]
  GI50: 0.416 µM
  TGI: 1.85 µM
[6]
  GI50: 1.04 µM
  TGI: 3.12 µM
[7]
  GI50: 1.05 µM
  TGI: 2.34 µM
[8]
  GI50: 0.413 µM
  TGI: 1.42 µM
[9]
  GI50: 0.774 µM
  TGI: 2.23 µM
[10]
  GI50: 0.431 µM
  TGI: 1.53 µM
[11]
  GI50: 0.416 µM
  TGI: 1.8 µM
[12]
  GI50: 1.51 µM
  TGI: 3 µM
[13]
  GI50: 0.477 µM
  TGI: 1.73 µM
[14]
  GI50: 1.13 µM
  TGI: 2.58 µM
[15]
  GI50: 1.25 µM
  TGI: 2.68 µM
[16]
  GI50: 0.38 µM
  TGI: 1.58 µM
[17]
  GI50: 1.11 µM
  TGI: 2.55 µM
[18]
  GI50: 0.536 µM
  TGI: 2.27 µM
[19]
  GI50: 0.408 µM
  TGI: 2.43 µM
[20]
  GI50: 1.5 µM
  TGI: 2.91 µM
[21]
  GI50: 0.309 µM
  TGI: 2.36 µM
[22]
  GI50: 0.663 µM
  TGI: 1.61 µM
[23]
  GI50: 0.705 µM
  TGI: 3.33 µM
[24]
  GI50: 0.935 µM
  TGI: 2.3 µM
[25]
  GI50: 0.913 µM
  TGI: 2.21 µM
[26]
  GI50: 2.7 µM
  TGI: 5.97 µM
[27]
  GI50: 1.75 µM
  TGI: 5.43 µM
[28]
  GI50: 0.929 µM
  TGI: 2.33 µM
[29]
  GI50: 0.745 µM
  TGI: 2.23 µM
[30]
  GI50: 0.705 µM
  TGI: 2.1 µM
[31]
  GI50: 0.45 µM
  TGI: 1.73 µM
[32]
  GI50: 0.419 µM
  TGI: 1.7 µM
[33]
  GI50: 0.315 µM
  TGI: 4.5 µM
[34]
  GI50: 1.25 µM
  TGI: 5.31 µM
[35]
  GI50: 1.3 µM
  TGI: 2.61 µM
[36]
  GI50: 0.46 µM
  TGI: 1.84 µM
[37]
  GI50: 0.423 µM
  TGI: 13 µM
[38]
  GI50: 1.15 µM
  TGI: 2.44 µM
[39]
  GI50: 1.43 µM
  TGI: 3.03 µM
[40]
  GI50: 1.14 µM
  TGI: 2.53 µM
[41]
  GI50: 0.714 µM
  TGI: 2.29 µM
[42]
  GI50: 1.06 µM
  TGI: 2.61 µM
[43]
  GI50: 0.727 µM
  TGI: 2.19 µM
[44]
  GI50: 1.53 µM
  TGI: 3.47 µM
[45]
  GI50: 0.719 µM
  TGI: 1.97 µM
[46]
  GI50: 1.22 µM
  TGI: 2.65 µM
[47]
  GI50: 1.64 µM
  TGI: 3.63 µM
[48]
  GI50: 1 µM
  TGI: 2.82 µM
[49]
  GI50: 0.904 µM
  TGI: 2.21 µM
[50]
  GI50: 0.409 µM
  TGI: 2.11 µM
[51]
  GI50: 0.419 µM
  TGI: 2.95 µM
[52]
  GI50: 1.02 µM
  TGI: 2.22 µM
[53]
  GI50: 1.36 µM
  TGI: 2.71 µM
[54]
  GI50: 0.514 µM
  TGI: 3.92 µM
[55]
  GI50: 1.43 µM
  TGI: 2.83 µM
[56]
  GI50: 0.636 µM
  TGI: 2.11 µM
[57]
  GI50: 0.345 µM
  TGI: 2.05 µM
[58]
  GI50: 1.72 µM
  TGI: 3.24 µM

## COc1ccc(OC)c(-c2nc3sccn3c2/C=C2/C(=O)Nc3ccc(Cl)cc32)c1
[1]
  GI50: 17.4 µM
  TGI: 33.1 µM
[2]
  GI50: 38.9 µM
  TGI: > 100 µM
[3]
  GI50: 20.8 µM
  TGI: 67.3 µM
[4]
  GI50: 23.1 µM
  TGI: 53.8 µM
[5]
  GI50: 31.2 µM
  TGI: > 100 µM
[6]
  GI50: 26.6 µM
  TGI: 70.1 µM
[7]
  GI50: 19.7 µM
  TGI: 48.6 µM
[8]
  GI50: 27.6 µM
  TGI: > 100 µM
[9]
  GI50: 24.9 µM
  TGI: 74.1 µM
[10]
  GI50: 41.3 µM
  TGI: > 100 µM
[11]
  GI50: 26.8 µM
  TGI: 73.9 µM
[12]
  GI50: 18.4 µM
  TGI: 33.9 µM
[13]
  GI50: 17.2 µM
  TGI: 44.9 µM
[14]
  GI50: 30.8 µM
  TGI: 80.8 µM
[15]
  GI50: 21.4 µM
  TGI: 44.3 µM
[16]
  GI50: 21.5 µM
  TGI: 51.6 µM
[17]
  GI50: 20.6 µM
  TGI: 39.8 µM
[18]
  GI50: 23.1 µM
  TGI: 58.9 µM
[19]
  GI50: 26.9 µM
  TGI: 94.8 µM
[20]
  GI50: 29.9 µM
  TGI: > 100 µM
[21]
  GI50: 18.5 µM
  TGI: 53.4 µM
[22]
  GI50: 24.3 µM
  TGI: 60.9 µM
[23]
  GI50: 34.4 µM
  TGI: > 100 µM
[24]
  GI50: 21.4 µM
  TGI: 51.4 µM
[25]
  GI50: 24.2 µM
  TGI: 74.3 µM
[26]
  GI50: 13.6 µM
  TGI: 41.5 µM
[27]
  GI50: 25.6 µM
  TGI: 89.8 µM
[28]
  GI50: 30 µM
  TGI: > 100 µM
[29]
  GI50: 24.4 µM
  TGI: > 100 µM
[30]
  GI50: 20.3 µM
  TGI: 55.3 µM
[31]
  GI50: 18.2 µM
  TGI: 40.5 µM
[32]
  GI50: 21.7 µM
  TGI: 55.2 µM
[33]
  GI50: 32.1 µM
  TGI: > 100 µM
[34]
  GI50: 15.6 µM
  TGI: 53.5 µM
[35]
  GI50: 36.1 µM
  TGI: > 100 µM
[36]
  GI50: 29.7 µM
  TGI: > 100 µM
[37]
  GI50: 29.9 µM
  TGI: > 100 µM
[38]
  GI50: 44.7 µM
  TGI: > 100 µM
[39]
  GI50: 17.5 µM
  TGI: 35.2 µM
[40]
  GI50: 11.8 µM
  TGI: 26.6 µM
[41]
  GI50: 26 µM
  TGI: 65 µM
[42]
  GI50: 27.2 µM
  TGI: > 100 µM
[43]
  GI50: 35.2 µM
  TGI: > 100 µM
[44]
  GI50: 35.8 µM
  TGI: > 100 µM
[45]
  GI50: 30.8 µM
  TGI: > 100 µM
[46]
  GI50: 18.5 µM
  TGI: 39.5 µM
[47]
  GI50: 25 µM
  TGI: 60.5 µM
[48]
  GI50: 30.6 µM
  TGI: > 100 µM
[49]
  GI50: 23.6 µM
  TGI: 81.8 µM
[50]
  GI50: 27.2 µM
  TGI: 85 µM
[51]
  GI50: 22.1 µM
  TGI: 69.4 µM
[52]
  GI50: 30.1 µM
  TGI: > 100 µM
[53]
  GI50: 20.8 µM
  TGI: 38.8 µM
[54]
  GI50: 25.7 µM
  TGI: 67.3 µM
[55]
  GI50: 33.6 µM
  TGI: > 100 µM
[56]
  GI50: 33.5 µM
  TGI: > 100 µM
[57]
  GI50: 31.2 µM
  TGI: 76 µM
[58]
  GI50: 19.4 µM
  TGI: 51.5 µM
